Series [1] is described as follows: Solubility experiments in different media, crystal forms of salts. In kind it is physicochemical. Set-up: thermodynamic solubility FaSSIF / thermodynamic solubility FaSSGF / thermodynamic solubility FeSSIF: unit not given here. The note with it: about 2 mg suspended for 24 hours, 37°C, HPLC, external standard method; for thermodynamic solubility FaSSGF: FaSSGF (artificial simulated gastric fluid); for thermodynamic solubility FaSSIF: FaSSIF (fasted-state artificial simulated intestinal fluid); for thermodynamic solubility FeSSIF: FeSSIF (fed-state artificial simulated intestinal fluid). The source says: 4.1 Experimental objective: The solubility of the crystal form A of phosphate, crystal form A of hydrochloride, crystal form A of sulphate, crystal form A of citrate, crystal form A of oxalate, crystal form A of maleate and crystal form A of salicylate in media such as artificial simulated gastric fluid (FaSSGF), fasted-state artificial simulated intestinal fluid (FaSSIF), and fed-state artificial simulated intestinal fluid (FeSSIF) was compared to provide a basis for the evaluation of the potential of the crystal forms of salts being manufactured as a drug. […]

A short description of series [2]: Hygroscopicity experiment (crystal forms of salts and crystal form A of free base). In kind it is physicochemical. The note with it: for weight gain after moisture absorption / hygroscopicity: RH 80%; for crystal form transformation (XRPD pattern): after 1 cycle of moisture absorption and desorption, 0-95% relative humidity; for hygroscopicity: result in words. The source says:
• 2.1 Experimental objective: The hygroscopicity of different crystal forms of salts of the compound was investigated under various relative humidity conditions to provide a basis for screening and storage of the crystal forms of salts of the compound. • 2.2 Experimental scheme: The crystal forms of salts of the compound were placed in saturated water vapor at different relative humidities to reach a dynamic equilibrium between the compound and the water vapor.
3.1 Experimental objective: The hygroscopicity of crystal form A of free base of the compound was investigated under various relative humidity conditions to provide a basis for screening and storage of the crystal forms of the compound.
3.2 Experimental scheme: The crystal form A of free base of the compound was placed in saturated water vapor at different relative humidities to reach a dynamic equilibrium between the compound and the water vapor. The percentage weight gain of the compound due to moisture absorption was calculated after the equilibrium.

Series [3] is described as follows: Solid stability experiment of crystal forms of salts (7 and 14 days). In kind it is physicochemical. On the procedure:
• 3.1 Experimental objective: To investigate the physical and chemical stability for different crystal forms of salts under the conditions of a high temperature of 60°C (GW), a high humidity of RH = 92.5% (GS), and both a high temperature of 50°C and a high humidity of RH = 75% (JS) and provide a basis for the screening of the crystal forms of salts and the storage of the crystal forms of salts of the compound. • 3.2 Experimental scheme: Different crystal forms of salts (crystal form A of hydrochloride, crystal form A of sulphate, crystal form A of citrate, crystal form A of oxalate, crystal form A of maleate and crystal form A of salicylate) were accurately weighed, and the stability of the crystal forms was investigated for 7 and 14 days under the three conditions of 60°C (GW), 92.5% RH (room temperature, GS), and 50°C/75% RH (JS). […] Therefore, they can well meet the requirements of subsequent drug development. […] Therefore, they both satisfy the requirements for subsequent drug storage.

Another series relates to Ba/F3 EGFR Del19/C797S. Briefly: Cell proliferation inhibition experiment (Cell Titer-Glo). In kind it is cell-based. Conditions: Mus musculus, 72 hours, read-out: Ba/F3 EGFR Dell9/C797S IC50. On the procedure: Experimental objective: The objective of this test example is to test the inhibitory activity of compounds on the proliferation of different EGFR C797S drug-resistant mutant cell lines Ba/F3 EGFR Del19/T790M/C797S, Ba/F3 EGFR L858R/T790M/C797S, and Ba/F3 EGFR Del19/C797S. Experimental instruments: Centrifuge (Eppendorf 5810R); Microplate reader (BioTek Synergy H1) Pipette (Eppendorf or Rainin); Carbon dioxide incubator (Thermo 311) Cell counter (Life Countess II) Experimental reagents and consumables: • Ba/F3 EGFR Del19/T790M/C797S cells were purchased from KYinno Biotechnology Co., Ltd.; • Ba/F3 EGFR Del19/C797S cells were purchased from CoBioer Biosciences Co., Ltd.; • Ba/F3 EGFR L858R/T790M/C797S cells were purchased from CoBioer Biosciences Co., Ltd.; • Cell Titer-Glo was purchased from Promega, with a catalogue number of G7573; • RPMI 1640 was purchased from Gibco, with a catalogue number of 22400089; • FBS was purchased from Gibco, with a catalogue number of 10091148; • cell culture plates were purchased from Corning, with a catalogue number of 3610. Experimental methods: The inhibitory activity of the compound on the proliferation of different EGFR C797S drug-resistant mutant cell lines was detected using the Cell Titer-Glo method. The different cell lines were cultured in RPMI 1640 complete culture medium containing 10% FBS under conditions of 37°C and 5% CO2, the cells were collected by centrifugation when growing to a certain density, and adjusted to appropriate cell density after counting, the cells were spread on a white 96-well plate at 90 µL/well, and cultured in a 37°C, 5% CO2 incubator overnight, prepared compound solutions at different concentrations were added at 10 µL/well, corresponding solvent controls were set, and all wells were cultured in a 37°C, 5% CO2 incubator for 72 hours, 50 µL of CellTiter-Glo solution was added to each well, shook and mixed evenly, and incubated in the dark for 10 minutes, and a BioTek Synergy H1 microplate reader was used for reading. Experimental data processing method: The luminescence signal value was used to calculate the inhibition rate. Graphpad Prism software was used to fit the concentration and inhibition rate to a nonlinear regression curve, so as to obtain the IC50 value, as shown in the Table below for details.
A general note: Cellular ATP, detected with luciferase, serves as a proxy for viable cell number.

Setting [4] is: high temperature and high humidity conditions, 7 and 14 days.
[5] abbreviates: placed for a period of time under various conditions.
[6] abbreviates: high temperature, high humidity, and both high temperature and high humidity conditions, 7 and 14 days.

Here are results for 10 compounds from patent publication EP4778921A1, “SALT FORM AND CRYSTAL FORM OF NITROGEN-CONTAINING HETEROCYCLIC DERIVATIVE INHIBITOR, AND PREPARATION METHOD THEREFOR AND USE THEREOF” (Shanghai Hansoh Biomedical Co., Ltd., priority 2023, dated 2025).

Where a name gives a salt, the structure may show the parent alone.

Regarding `CC(C)c1c(F)cc(N2C[C@H](N(C)S(C)(=O)=O)[C@H]2C)c2cnc(Nc3ccnc(-c4cn(C)nc4Cl)n3)cc12` [crystal form A of maleate, N-((2R,3S)-1-(3-((2-(3-chloro-1-methyl-1H-pyrazol-4-yl)pyrimidin-4-yl)amino)-6-fluoro-5-isopropylisoquinolin-8-yl)-2-methylazetidin-3-yl)-N-methylmethanesulphonamide], in series [1], the “thermodynamic solubility FaSSGF” value was 0.075, the “thermodynamic solubility FaSSIF” value was 0.029 and the “thermodynamic solubility FeSSIF” value is listed as more than 1.020. In addition, in series [2], the “weight gain after moisture absorption” value came out at 2.050% and the “crystal form transformation (XRPD pattern)” value (from here on “crystal form transformation”) is given as “no crystal form transformation occurred”. For the same compound, the “stability (impurity increase)” value in series [3] (setting [4]) is “relatively stable”.

With `CC(C)c1c(F)cc(N2C[C@H](N(C)S(C)(=O)=O)[C@H]2C)c2cnc(Nc3ccnc(-c4cn(C)nc4Cl)n3)cc12` [crystal form B of hydrochloride, N-((2R,3S)-1-(3-((2-(3-chloro-1-methyl-1H-pyrazol-4-yl)pyrimidin-4-yl)amino)-6-fluoro-5-isopropylisoquinolin-8-yl)-2-methylazetidin-3-yl)-N-methylmethanesulphonamide], in series [2], the “weight gain after moisture absorption” value came out at 1.157%, the hygroscopicity result is given as “weak hygroscopicity” and the “crystal form transformation” value is “no crystal form transformation occurred”.

For the compound `CC(C)c1c(F)cc(N2C[C@H](N(C)S(C)(=O)=O)[C@H]2C)c2cnc(Nc3ccnc(-c4cn(C)nc4Cl)n3)cc12` [crystal form A of sulphate, N-((2R,3S)-1-(3-((2-(3-chloro-1-methyl-1H-pyrazol-4-yl)pyrimidin-4-yl)amino)-6-fluoro-5-isopropylisoquinolin-8-yl)-2-methylazetidin-3-yl)-N-methylmethanesulphonamide], in series [1], the “thermodynamic solubility FaSSGF” value was 0.096, the “thermodynamic solubility FaSSIF” value is on record as 0.034 and the “thermodynamic solubility FeSSIF” value is given as 1.114. In addition, in series [2], the “weight gain after moisture absorption” value is recorded as 4.616% and the “crystal form transformation” value is on record as “no crystal form transformation occurred”. Also, the “stability (impurity increase)” value in series [3] (setting [5]) is on record as “remain stable”.

Regarding `CC(C)c1c(F)cc(N2CC(NS(C)(=O)=O)C2)c2cnc(Nc3ccnc(-c4cn(C)nc4Cl)n3)cc12` [Example 13, N-(1-(3-((2-(3-chloro-1-methyl-1H-pyrazol-4-yl)pyrimidin-4-yl)amino)-6-fluoro-5-isopropylisoquinolin-8-yl)azetidin-3-yl)methanesulphonamide], in the series with Ba/F3 EGFR Del19/C797S, the IC50 came out at 19 nM.

In the case of `CC(C)c1c(F)cc(N2C[C@H](N(C)S(C)(=O)=O)[C@H]2C)c2cnc(Nc3ccnc(-c4cn(C)nc4Cl)n3)cc12` [crystal form A of salicylate, N-((2R,3S)-1-(3-((2-(3-chloro-1-methyl-1H-pyrazol-4-yl)pyrimidin-4-yl)amino)-6-fluoro-5-isopropylisoquinolin-8-yl)-2-methylazetidin-3-yl)-N-methylmethanesulphonamide], in series [1], the “thermodynamic solubility FaSSGF” value was 0.020, the “thermodynamic solubility FaSSIF” value is reported as 0.101 and the “thermodynamic solubility FeSSIF” value is 0.672. In addition, in series [2], the “weight gain after moisture absorption” value came out at 0.1374%, the hygroscopicity result was “weak hygroscopicity” and the “crystal form transformation” value is “no crystal form transformation occurred”. In series [3] (setting [4]), the “stability (impurity increase)” value is recorded as “relatively stable”.

In the case of `CC(C)c1c(F)cc(N2C[C@H](N(C)S(C)(=O)=O)[C@H]2C)c2cnc(Nc3ccnc(-c4cn(C)nc4Cl)n3)cc12` [crystal form A of oxalate, N-((2R,3S)-1-(3-((2-(3-chloro-1-methyl-1H-pyrazol-4-yl)pyrimidin-4-yl)amino)-6-fluoro-5-isopropylisoquinolin-8-yl)-2-methylazetidin-3-yl)-N-methylmethanesulphonamide], in series [1], the “thermodynamic solubility FaSSGF” value is reported as 0.070, the “thermodynamic solubility FaSSIF” value is reported as 0.035 and the “thermodynamic solubility FeSSIF” value is on record as 1.228. For the same compound, in series [2], the “weight gain after moisture absorption” value is 1.707%, the hygroscopicity entry is listed as “weak hygroscopicity” and the “crystal form transformation” value is given as “no crystal form transformation occurred”. Moreover, the “stability (impurity increase)” value in series [3] (setting [6]) is reported as “relatively stable”.

For the compound `CC(C)c1c(F)cc(N2CC(N(C)S(C)(=O)=O)C2)c2cnc(Nc3ccnc(-c4cn(C)nc4Cl)n3)cc12` [Example 3, N-(1-(3-((2-(3-chloro-1-methyl-1H-pyrazol-4-yl)pyrimidin-4-yl)amino)-6-fluoro-5-isopropylisoquinolin-8-yl)azetidin-3-yl)-N-methylmethanesulphonamide], in the series on Ba/F3 EGFR Del19/C797S, the IC50 worked out at 14 nM.

In the case of `CC(C)c1c(F)cc(N2C[C@H](N(C)S(C)(=O)=O)[C@H]2C)c2cnc(Nc3ccnc(-c4cn(C)nc4Cl)n3)cc12` [crystal form A of citrate, N-((2R,3S)-1-(3-((2-(3-chloro-1-methyl-1H-pyrazol-4-yl)pyrimidin-4-yl)amino)-6-fluoro-5-isopropylisoquinolin-8-yl)-2-methylazetidin-3-yl)-N-methylmethanesulphonamide], in series [1], the “thermodynamic solubility FaSSGF” value is 0.053, the “thermodynamic solubility FaSSIF” value was 0.159 and the “thermodynamic solubility FeSSIF” value is reported as more than 0.870. In series [2], the “weight gain after moisture absorption” value is on record as 0.573%, the hygroscopicity result is “weak hygroscopicity” and the “crystal form transformation” value is listed as “no crystal form transformation occurred”. For the same compound, the “stability (impurity increase)” value in series [3] (setting [6]) was “relatively stable”.

Regarding `Cc1nn(C)cc1-c1nccc(Nc2cc3c(C(C)C)c(F)cc(N4CC(N(C)S(C)(=O)=O)C4)c3cn2)n1` [Example 6, N-(1-(3-((2-(1,3-dimethyl-1H-pyrazol-4-yl)pyrimidin-4-yl)amino)-6-fluoro-5-isopropylisoquinolin-8-yl)azetidin-3-yl)-N-methylmethanesulphonamide], in the series on Ba/F3 EGFR Del19/C797S, the IC50 was determined as 22 nM.

As to `CC(C)c1c(F)cc(N2C[C@H](N(C)S(C)(=O)=O)[C@H]2C)c2cnc(Nc3ccnc(-c4cn(C)nc4Cl)n3)cc12` [crystal form A of hydrochloride, N-((2R,3S)-1-(3-((2-(3-chloro-1-methyl-1H-pyrazol-4-yl)pyrimidin-4-yl)amino)-6-fluoro-5-isopropylisoquinolin-8-yl)-2-methylazetidin-3-yl)-N-methylmethanesulphonamide], in series [1], the “thermodynamic solubility FaSSGF” value is on record as 0.072, the “thermodynamic solubility FaSSIF” value was 0.214 and the “thermodynamic solubility FeSSIF” value was more than 1.016. Besides, the “stability (impurity increase)” value in series [3] (setting [5]) is listed as “remain stable”.
